Earlier results on 6 compounds are cited in patent US20250333422A1, “AMORPHOUS BERBERINE WITH ENHANCED BIOAVAILABILITY” (Nature's Way Products, LLC, priority 2024, published 2025).

The conditions of series [1]: berberine metabolites.
Assay in series [2]: not given
The source holds these as a separate data set.

Where a name gives a salt, the structure may show the parent alone.

What is called bioavailability is dose-corrected exposure relative to a reference, in per cent. For the compound `COc1ccc2cc3[n+](cc2c1OC)CCc1cc2c(cc1-3)OCO2` [Berberine, Berberine HCl], the “share of dose that goes into the lower bowel unabsorbed” value (oral dose) is listed as 99%. Besides, the bioavailability (standard crystalline berberine, oral) was less than 1%.

Turning to `COc1ccc2cc3[n+](cc2c1O)CCc1cc2c(cc1-3)OCO2` [berberrubine], the “biological activities for antioxidative, hepatoprotective, and hypolipidemic effects” value (“biological activities for antioxidative” below) in series [1] is recorded as “showed biological activities”.

For the compound `COc1ccc2cc3[n+](cc2c1OC)CCc1cc(O)c(O)cc1-3` [demethyleneberberine], the “biological activities for antioxidative” value in series [1] is given as “showed biological activities”.

As for `COc1ccc2c(c1OC)CN1CCc3cc4c(cc3C1=C2)OCO4` [dhBB, dihydroberberine], the “bioavailability of berberine versus an oral dosage of standard berberine” value in series [2] is 5 times.

As for `COc1cc2c(cc1O)CC[n+]1cc3c(OC)c(OC)ccc3cc1-2` [jatrorrhizine], the “biological activities for antioxidative” value in series [1] is given as “showed biological activities”.

For the compound `COc1c(O)ccc2cc3[n+](cc12)CCc1cc2c(cc1-3)OCO2` [thalifendine], the “biological activities for antioxidative” value in series [1] is reported as “showed biological activities”.
